The text below walks through data of patent US4921847A, “Trihalo(amine)gold(III) anti-tumor complexes” (Engelhard Corporation, priority 1989, dated 1990).

The subject of series [1] is S180 ascites. Put plainly: Anti-tumor evaluation against S180 ascites in mice (% increase in life span, survivors). In kind it is in vivo, female CFW Swiss mice. To be noted: for Survivors: day of evaluation; for Anti-tumor activity (in words): 50% ILS criterion; for % ILS against criterion for anti-tumor activity: failed to meet the 50% ILS criterion. As to the method:
The above prepared compounds were evaluated against S180 ascites in female CFW Swiss mice. The mice were weighed (average weight: 20 g), placed into cages (six mice to a cage) and on day zero the mice were inoculated with 0.2 ml of a freshly prepared saline suspension (0.15 M NaCl) containing 1×10^7 tumor cells/ml or a total of 2×10^6 cells. This inoculum was freshly prepared using "transfer" mice which had been injected with tumor cells the previous week; it was obtained via the following steps: (1) the removal of cells from the peritoneal cavity of the sacrificed transfer mouse, (2) alternate centrifugation and washing operations (2-3 times with cold saline) to remove blood and other components, and (3) dilution of the volume of the packed cell with saline (1:3). A final centrifugation was carried out at 1000 RPM over a two minute period. A cell count was made on a 2,000-fold dilution of this 1:3 suspension by means of a Coulter Counter. A final dilution to 1×10^7 cells/ml was made based on the average count.
On day 1, solutions of the test compounds were prepared and each mouse in a set of six were injected with the same test compound at the same dosage. The doses were based on the average weight of the animals (cage weight). Also, beginning on day 1 two controls were employed containing six mice per control:
(1) Normal Control: This consisted solely of the carrier or diluent used in combination with the test compound; and
(2) Positive Control: This consisted solely of the known anti-tumor agent cis-[Pt(NH3)2 Cl2 ] (Cisplatin) in saline (8 mg/kg) to test the response of the biological system.
The effectiveness of a test compound was measured in terms of the % increase in life span (%ILS) of the test mice relative to the Normal Control (Calculated from the day of tumor inoculation, i.e., day zero). To standardize the test data and permit intercomparisons, the day of evaluation was arbitrarily taken as that day corresponding to twice the mean life span (or average day of death) of the control. This established a practical upper limit of 100% on the %ILS attainable. For calculation purposes the survivors on the day of evaluation were considered to have died on that day. The %ILS was calculated as follows: [formula] ILS values in excess of 50% were interpreted as being indicative of anti-tumor activity, whereas, values in excess of 75% indicated excellent activity.
The products of Examples 1, 4, 10 and 11 were administered in a freshly prepared 1% sodium bicarbonate solution; the remaining test compounds were administered as slurries in 0.5% "Klucel" (hydroxypropylcellulose).

Series [2] relates to Sarcoma 180 tumors. Put plainly: Therapeutic index (LD50/ED90), implanted Sarcoma 180 tumors. Further details: ED90: unit not given here. Particulars: for Maximum % ILS (Dosage): S 180 ascites; for ED90: dose giving 50% increase in life span for 90% of the animals, determined graphically. Type of series: in vivo, Swiss white mice.
The nature of series [3]: Solubility. In kind it is physicochemical.

Consider `[Cl][Au-]([Cl])([Cl])[n+]1cc[nH]c1` [Example 8, trichloro(imidazole)gold(III)], for which the “% ILS” value in series [1] (S 180 ascites, 5 mg/kg) was 5%; in series [1] (S 180 ascites, 10 mg/kg), -7%; in series [1] (S 180 ascites, 20 mg/kg), 1%; in series [1] (S 180 ascites, 40 mg/kg), -16%; in series [1] (S 180 ascites, 80 mg/kg), 37%; in series [1] (S 180 ascites, 160 mg/kg), 37%. For the same compound, the Survivors in series [1] (S 180 ascites, 5 mg/kg) is reported as 0 of 6; in series [1] (S 180 ascites, 10 mg/kg), 0 of 6; in series [1] (S 180 ascites, 20 mg/kg) it was 1 of 6; in series [1] (S 180 ascites, 40 mg/kg), 0 of 6; in series [1] (S 180 ascites, 80 mg/kg), 1 of 6; in series [1] (S 180 ascites, 160 mg/kg), 2 of 6. Moreover, the “Anti-tumor activity (in words)” value is “considered to be inactive” in series [1] (S 180 ascites) and “inactive in bringing about a regression of S 180 ascites at all doses tested” in series [1] (S 180 ascites, listed as trichloro(imidazole)gold(III)). The “% ILS against criterion for anti-tumor activity” value in series [1] is below 50%.
With `CC(=O)c1ccc[n+]([Au-]([Cl])([Cl])[Cl])c1` [Example 3, trichloro(3-acetylpyridine)gold(III)], in series [1] (S 180 ascites), the “peak ILS values” is recorded as above 90%. Further, the “% ILS” value in series [1] (S 180 ascites, 10 mg/kg) is reported as -5%; in series [1] (S 180 ascites, 20 mg/kg) it was 42%; in series [1] (S 180 ascites, 40 mg/kg), 97%; in series [1] (S 180 ascites, 80 mg/kg) it was 66%; in series [1] (S 180 ascites, 160 mg/kg), 23%; in series [1] (S 180 ascites, 320 mg/kg), -90%. For the same compound, the Survivors in series [1] (S 180 ascites, 10 mg/kg) is listed as 0 of 6; in series [1] (S 180 ascites, 20 mg/kg) it was 1 of 6; in series [1] (S 180 ascites, 40 mg/kg), 5 of 6; in series [1] (S 180 ascites, 80 mg/kg), 4 of 6; in series [1] (S 180 ascites, 160 mg/kg) it was 0 of 6; in series [1] (S 180 ascites, 320 mg/kg) it was 0 of 6. Also, the “Therapeutic Index” value in series [2] (LD50/ED90) is given as 4.5. Further, in series [2] (40 mg/kg), the “Maximum % ILS (Dosage)” value was 97%. In addition, the ED90 in series [2] is given as 31.
On to `[Cl][Au]([Cl])[Cl].c1ccncc1` [Example 7, trichloro(pyridine)gold(III)], for which the “% ILS” value was 45% in series [1] (S 180 ascites, 10 mg/kg); 71% in series [1] (S 180 ascites, 20 mg/kg); 66% in series [1] (S 180 ascites, 40 mg/kg); -6% in series [1] (S 180 ascites, 80 mg/kg); -94% in series [1] (S 180 ascites, 160 mg/kg); -94% in series [1] (S 180 ascites, 320 mg/kg). The Survivors in series [1] (S 180 ascites, 10 mg/kg) is given as 3 of 6; in series [1] (S 180 ascites, 20 mg/kg), 2 of 6; in series [1] (S 180 ascites, 40 mg/kg), 3 of 6; in series [1] (S 180 ascites, 80 mg/kg), 2 of 6; in series [1] (S 180 ascites, 160 mg/kg), 0 of 6; in series [1] (S 180 ascites, 320 mg/kg) it was 0 of 6. Moreover, the “Maximum % ILS (Dosage)” value in series [2] (20 mg/kg) stood at 71%. For the same compound, in series [2], the ED90 is recorded as 35.
`O=C(O)Cc1ccc[n+]([Au-]([Br])([Br])[Br])c1` [Example 11, tribromo(3-pyridylacetic acid)gold(III)]: the “solubility in 1% sodium bicarbonate solution” value in series [3] stood at 12.8 mg/mL. Besides, the “% ILS” value in series [1] (S 180 ascites, 10 mg/kg) is listed as -16%; in series [1] (S 180 ascites, 20 mg/kg) it was 20%; in series [1] (S 180 ascites, 40 mg/kg), 10%; in series [1] (S 180 ascites, 80 mg/kg), 31%; in series [1] (S 180 ascites, 160 mg/kg) it was -21%; in series [1] (S 180 ascites, 320 mg/kg), -92%. Also, the Survivors in series [1] (S 180 ascites, 10 mg/kg) was 0 of 6; in series [1] (S 180 ascites, 20 mg/kg), 0 of 6; in series [1] (S 180 ascites, 40 mg/kg), 0 of 6; in series [1] (S 180 ascites, 80 mg/kg) it was 1 of 6; in series [1] (S 180 ascites, 160 mg/kg) it was 0 of 6; in series [1] (S 180 ascites, 320 mg/kg), 0 of 6. Besides, the “Anti-tumor activity (in words)” value was “considered to be inactive” in series [1] (S 180 ascites) and “inactive as an anti-tumor agent” in series [1] (S 180 ascites, listed as tribromo(3-pyridylacetic acid)gold(III)). Further, the “% ILS against criterion for anti-tumor activity” value in series [1] is given as below 50%.
